Values joined by “and” are separate entries in the source; they are usually repeats but may differ in a detail not shown here. Identical values can stand only once.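 Each compound was tested at five concentrations against cells in 96-well plates for 48 hours. At the GI50, growth is halved. TGI marks complete inhibition of growth.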
Assays:
Test in all cases: growth of human tumour cells (NCI), 48 h
[1] = tested on: CCRF-CEM leukemia
[2] = tested on: HCT-15 colon
[3] = tested on: U251 CNS
[4] = tested on: SK-MEL-28 melanoma
[5] = tested on: COLO 205 colon
[6] = tested on: LOX IMVI melanoma
[7] = tested on: HL-60(TB) leukemia
[8] = tested on: SF-539 CNS
[9] = tested on: UACC-257 melanoma
[10] = tested on: NCI-H23 lung

SMILES	GI50 [1] [µM]	TGI [1]	GI50 [2] [µM]	TGI [2] [µM]	GI50 [3] [µM]	TGI [3] [µM]	GI50 [4] [µM]	TGI [4] [µM]	GI50 [5] [µM]	TGI [5] [µM]	GI50 [6] [µM]	TGI [6]	GI50 [7] [µM]	TGI [7] [µM]	GI50 [8] [µM]	TGI [8] [µM]	GI50 [9] [µM]	TGI [9] [µM]	GI50 [10] [µM]	TGI [10] [µM]
CN(C)CCCC(=O)Nc1ccc(Cn2nnc3c2C(=O)c2nnn(Cc4ccc(NC(=O)CCCN(C)C)cc4)c2C3=O)cc1	2.04	6.35 µM	56.8	> 100	2.69	6.62	4.55	20.3	1.79	3.52	2.22	5.62 µM	1.75	5.17	2.34	5.6	3.25	11.6	2.13	5.01
CCCCc1nc2cc(/C=C/C(=O)NO)ccc2n1CCN(CC)CC	0.317	> 100 µM	1.47	22.4	0.28	1.43	0.254	1.58	0.138	0.298	0.291	1.28 µM	0.441	> 100	0.335	18.5	0.0759	0.58	0.452	7.72
Oc1ccc(SCc2ccc(NCc3ccccc3)cc2)cc1		64.8 µM		> 100		> 100		> 100		> 100		73.9 µM		68.9		> 100		> 100		> 100
OC(C(=Nc1ccccc1)c1ccccc1)c1ccccc1 (centres undefined)		27.9 µM		> 100		15.6		15.2		20.9		38.2 µM		56.1		25.3		5.56		40.4
CC(C)c1ccc(O)c(=O)cc1	1.67	> 41 µM and 4.89 µM	4.95	> 100	6.53	> 80.9		> 100	3.83	30.1	3.54	40.7 µM and 72.8 µM	2.51	> 24.5	7.69	17	15.9	31	17.2	> 74
COC1(OC)c2ccccc2C2(O)c3ccccc3C(=O)C12 (centres undefined)		84.5 µM		> 100		> 100		> 100		27		> 100 µM		46		> 100		83.9		> 100
CN1CCN(c2cc(Nc3cc(C4CC4)[nH]n3)nc(Nc3ccc(CC(=O)NCc4cccc(F)c4)cc3)n2)CC1	0.0495	7.49 µM	2.9	14.5	0.978	5.24	0.971	2.46	0.0713	0.607	0.219	1.48 µM	0.713	3.06	0.858	2.28	1.13	2.94	1.05	9.74
CN(Cc1ccccc1)C1(N(C)Cc2ccccc2)CC1		> 100 µM		> 100		> 100		> 100		> 100		> 100 µM		> 100		> 100		> 100		> 100
COc1cc(/C=C/C(=O)c2cc(OC)c(OC)c(OC)c2)cc(OC)c1OC	2.25	> 100 µM	3.41	62.9	3.21	16.6	8.57	24.3	9.09	25.8	2.74	10.9 µM	1.21	11.2	3.21	12.9	4.35	34.6	3.15	13.7
COc1ccc2sc3c(NCCCNCCO)nc4ccccc4c3c(=O)c2c1	1.74	4.06 µM	1.45	2.87	1.6	3.16	1.8	3.27	1.66	3.65	1.57	3 µM	1.98	3.89	1.65	3.1	1.93	3.99	1.73	3.27
O=[N+]([O-])c1ccc2c(c1)S(=O)c1ccccc1-2 (centres undefined)		> 100 µM		> 100		> 100		> 100		> 100		> 100 µM		> 100		> 100		> 100		> 100
Oc1ccc(-c2nc3ccc4[nH]ncc4c3c3c2CCCC3)c2cccnc12	0.204	11.8 µM	0.153	7.3	0.143	5.97	0.498	8.61	0.89	2.42	0.203	4.01 µM	0.639	3.14	0.145	1.87	0.888	3.68	0.158	1.66
Clc1ccc(-c2cn(-c3ccccc3)c(-c3ccccc3)n2)c(Cl)c1	2.51	> 50 µM	2.91	> 50	1.25	3.83	4.86	> 41.2	1.14	3.03	> 14	> 50 µM	9.74	> 50	2.2	> 50	> 22.8	> 50	> 16.2	> 50
COc1cc2c3c(n(C)c(=O)c2cc1OC)-c1cc2c(cc1/C3=C\[C@@H](N)CCCCN)OCO2	0.996	> 100 µM	60.3	> 100	< 0.0209	7.41	1.39	> 100	2.8	> 86.3	0.298	3.9 µM	2.15	8.73	0.335	12.5	5.24	> 52.8	1.29	20.5

Reference: PubChem BioAssay (NCI)
